Where two headings read alike, the source gives them in different places. One block for each compound: values may come before it. Starred links: 1 amine or outer side, 2 acyl side, 3 side chain; linkers in the order of their positions; H or OH if unused. Positions of bridges follow the written chain, without caps; N, C: chain ends. Non-standard residues stand in square brackets, D forms with d. Residues, ends and D or L forms follow the SMILES beside them. ξ: configuration not given here. Phe(3-Me) = Cc1cccc(C[C@H](N)C(=O)O)c1; γGlu = O=C(O)[C@H](CCC(=O)[*:2])N[*:1]; 2Nal = N[C@@H](Cc1ccc2ccccc2c1)C(=O)O; βAsp = O=C(O)[C@H](CC(=O)[*:2])N[*:1]; NMeThr(3ξ) = CN[C@H](C(=O)O)C(C)O; Ahp(2) = CCCCC[C@H](N)C(=O)O; NMeNle = CCCC[C@H](NC)C(=O)O; Tle = CC(C)(C)[C@H](N)C(=O)O; NHexGly = CCCCCCNCC(=O)O; Nle = CCCC[C@H](N)C(=O)O; Orn = NCCC[C@H](N)C(=O)O; Aun = NCCCCCCCCCCC(=O)O; Abu = CC[C@H](N)C(=O)O; AEEA = NCCOCCOCC(=O)O
Target: T1, mouse VISTA (mVISTA) (Mus musculus, UniProt Q9D659)
T1 construct: expressed in transfected cells; host or cells: Human embryonic kidney 293T cells
T1 sequence (Q9D659 33-308): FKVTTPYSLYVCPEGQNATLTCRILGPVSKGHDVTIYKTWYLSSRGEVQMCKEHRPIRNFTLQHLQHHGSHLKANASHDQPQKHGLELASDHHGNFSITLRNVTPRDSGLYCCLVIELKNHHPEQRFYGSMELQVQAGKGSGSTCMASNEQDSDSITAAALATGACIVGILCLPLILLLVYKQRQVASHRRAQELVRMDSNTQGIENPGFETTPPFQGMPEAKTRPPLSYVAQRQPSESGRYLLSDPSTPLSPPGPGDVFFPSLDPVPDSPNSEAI
Assay: Cell-Based Binding High-Content Assay For mVISTA (HC CBA mVISTA)
Procedure, shortened: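 Read-out: Alexa 647–streptavidin signal imaged on fixed, Hoechst-stained mVISTA-293T cells, with IC50 taken from a four-parameter logistic curve. Compounds competed with 2 nM biotinylated peptide for 30 min at room temperature, tested under both no-wash and wash (1 h compound, media exchange, 1 h) formats.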

[1] = 293T cells expressing mouse VISTA, competition with biotinylated peptide (2 nM), read-out: HC CBA mVISTA IC50
[2] = cell-based binding high-content assay, mVISTA, the 16th table, read-out: HC CBA mVISTA IC50
[3] = the 19th table, scaffold drawing 22, read-out: HC CBA mVISTA IC50

IC50 [1]: 24.9 nM
SMILES: CCCCCCN1CC(=O)N[C@@H](Cc2ccc(O)cc2)C(=O)N[C@@H](CC(C)C)C(=O)N[C@@H](CC(=O)O)C(=O)N[C@@H](CCCNC(=N)N)C(=O)N[C@@H](CC(C)C)C(=O)N[C@@H](CCCCC)C(=O)N2CCC[C@H]2C(=O)N[C@@H](C(C)C)C(=O)N[C@@H](CO)C(=O)N[C@H](C(=O)NCC(N)=O)CSCC(=O)N[C@@H](Cc2ccccc2)C(=O)N[C@@H](Cc2ccc(O)cc2)C(=O)N[C@@H](CC(=O)O)C1=O [Example 1041] ({CH2CO}-FYD[NHexGly]YLDRL[Ahp(2)]PVSCG-NH2; thioether N-14)

IC50 [2]: 33.2 nM
SMILES: CCCCCCN1CC(=O)N[C@@H](Cc2ccc(O)cc2)C(=O)N[C@@H](CC(C)C)C(=O)NCC(=O)N[C@@H](CCCNC(=N)N)C(=O)N[C@@H](Cc2ccc(O)cc2)C(=O)N[C@@H](CCCCC)C(=O)N2CCC[C@H]2C(=O)N[C@@H](C(C)C)C(=O)N[C@@H](C(C)C)C(=O)N[C@H](C(=O)NCC(=O)O)CSCC(=O)N[C@@H](Cc2ccc3ccccc3c2)C(=O)N[C@@H](Cc2ccc(O)cc2)C(=O)N[C@@H](CC(=O)O)C1=O [Ex 1299] ({CH2CO}-[2Nal]YD[NHexGly]YLGRY[Ahp(2)]PVVCG-OH; thioether N-14)

IC50 (cell-based binding high-content assay, mVISTA, the 15th table, read-out: HC CBA mVISTA IC50): 6.4 nM
SMILES: CCCCCCN1CC(=O)N[C@@H](Cc2ccc(O)cc2)C(=O)N[C@@H](CCCCC)C(=O)N[C@@H](CC(N)=O)C(=O)N[C@@H](CCCNC(=N)N)C(=O)N(C)[C@@H](CCCC)C(=O)N[C@@H](CCCCC)C(=O)N2CCC[C@H]2C(=O)N[C@@H](C(C)C)C(=O)N[C@@H](CO)C(=O)N[C@H](C(=O)NCC(=O)O)CSCC(=O)N[C@@H](Cc2ccc3ccccc3c2)C(=O)N[C@@H](Cc2c[nH]c3ccccc23)C(=O)N[C@@H](CC(=O)O)C1=O [compound 1252] ({CH2CO}-[2Nal]WD[NHexGly]Y[Ahp(2)]NR[NMeNle][Ahp(2)]PVSCG-OH; thioether N-14)

IC50 [2]: 19.9 nM
SMILES: CCCCCCN1CC(=O)N[C@@H](Cc2ccc(O)cc2)C(=O)N[C@@H](CC(C)C)C(=O)NCC(=O)N[C@@H](CCCNC(=N)N)C(=O)N[C@@H](CC(N)=O)C(=O)N[C@@H](CCCCC)C(=O)N2CCC[C@H]2C(=O)N[C@@H](C(C)C)C(=O)N[C@@H](CO)C(=O)N[C@H](C(=O)NCC(=O)O)CSCC(=O)N[C@@H](Cc2ccc3ccccc3c2)C(=O)N[C@@H](Cc2ccc(O)cc2)C(=O)N[C@@H](CC(=O)O)C1=O [Ex 1293] ({CH2CO}-[2Nal]YD[NHexGly]YLGRN[Ahp(2)]PVSCG-OH; thioether N-14)

IC50 (cell-based binding high-content assay, mVISTA, read-out: HC CBA miPr ISTA IC50): 37.4 nM
SMILES: CCCCCCN1CC(=O)N[C@@H](Cc2ccc(O)cc2)C(=O)N[C@@H](CC)C(=O)N[C@@H](CC(N)=O)C(=O)N[C@@H](CCCNC(=N)N)C(=O)N(C)[C@@H](CCCC)C(=O)N[C@@H](CCCCC)C(=O)N2CCC[C@H]2C(=O)N[C@@H](C(C)(C)C)C(=O)N[C@@H](CO)C(=O)N[C@H](C(=O)N[C@@H](CC(=O)NCCOCCOCC(=O)N[C@@H](CC(=O)O)C(=O)NCCOCCOCC(=O)NCCCCCCCCCCC(=O)O)C(=O)O)CSCC(=O)N[C@@H](Cc2ccccc2)C(=O)N[C@@H](Cc2ccc(O)cc2)C(=O)N[C@@H](CC(=O)O)C1=O [compound 2059] ({CH2CO}-FYD[NHexGly]Y[Abu]NR[NMeNle][Ahp(2)]P[Tle]SC[βAsp][AEEA]D[AEEA][Aun]-OH; thioether N-14)

IC50 [1]: 5.3 nM
SMILES: CCCCCCN1CC(=O)N[C@@H](Cc2ccc(O)cc2)C(=O)N[C@@H](CC(C)C)C(=O)NCC(=O)N[C@@H](CCCNC(=N)N)C(=O)N[C@@H](CCCCN)C(=O)N[C@@H](CCCCC)C(=O)N2CCC[C@H]2C(=O)N[C@@H](C(C)C)C(=O)N[C@@H](CO)C(=O)N[C@H](C(=O)NCC(=O)O)CSCC(=O)N[C@@H](Cc2ccccc2)C(=O)N[C@@H](Cc2ccc(O)cc2)C(=O)N[C@@H](CC(=O)O)C1=O [Example 1091] ({CH2CO}-FYD[NHexGly]YLGRK[Ahp(2)]PVSCG-OH; thioether N-14)

IC50 [1]: 17.1 nM
SMILES: CCCCCCN1CC(=O)N[C@@H](Cc2ccc(O)cc2)C(=O)N[C@@H](CCCCC)C(=O)N[C@@H](CC(=O)O)C(=O)N[C@@H](CCCNC(=N)N)C(=O)N[C@@H](CC(C)C)C(=O)N[C@@H](CCCCC)C(=O)N2CCC[C@H]2C(=O)N[C@@H](C(C)C)C(=O)N[C@@H](CC(=O)O)C(=O)N[C@H](C(=O)NCC(=O)O)CSCC(=O)N[C@@H](Cc2ccccc2)C(=O)N[C@@H](Cc2ccc(O)cc2)C(=O)N[C@@H](CC(=O)O)C1=O [Example 1013] ({CH2CO}-FYD[NHexGly]Y[Ahp(2)]DRL[Ahp(2)]PVDCG-OH; thioether N-14)

IC50 (read-out: HC CBA mVISTA IC50): 29.9 nM
SMILES: CCCCCCN1CC(=O)N[C@@H](Cc2ccc(O)cc2)C(=O)N[C@@H](CCCC)C(=O)N[C@@H](CC(=O)O)C(=O)N[C@@H](CCCNC(=N)N)C(=O)N[C@@H](CC(C)C)C(=O)N[C@@H](CCCCC)C(=O)N2CCC[C@H]2C(=O)N[C@@H](C(C)C)C(=O)N2CCC[C@H]2C(=O)N[C@H](C(=O)NCC(=O)O)CSCC(=O)N[C@@H](Cc2ccccc2)C(=O)N[C@@H](Cc2ccc(O)cc2)C(=O)N[C@@H](CC(=O)O)C1=O [compound 1118] ({CH2CO}-FYD[NHexGly]Y[Nle]DRL[Ahp(2)]PVPCG-OH; thioether N-14)

IC50 [3]: 9.9 nM
SMILES: CCCCCCN1CC(=O)N[C@@H](Cc2ccc(O)cc2)C(=O)N[C@@H](CCCC)C(=O)N[C@@H](CC(=O)O)C(=O)N[C@@H](CCCNC(=N)N)C(=O)N(C)[C@@H](CCCC)C(=O)N[C@@H](CCCCC)C(=O)N2CCC[C@H]2C(=O)N[C@@H](C(C)C)C(=O)N[C@@H](CC(=O)O)C(=O)N[C@H](C(=O)N[C@@H](CO)C(N)=O)CSCC(=O)N[C@@H](Cc2cccc(C)c2)C(=O)N[C@@H](Cc2c[nH]c3ccccc23)C(=O)N[C@@H](CC(=O)O)C1=O [compound 1445] ({CH2CO}-[Phe(3-Me)]WD[NHexGly]Y[Nle]DR[NMeNle][Ahp(2)]PVDCS-NH2; thioether N-14)

IC50 [3]: 7.6 nM
SMILES: CCCCCCN1CC(=O)N[C@@H](Cc2ccc(O)cc2)C(=O)N[C@@H](CCCC)C(=O)N[C@@H](CC(=O)O)C(=O)N[C@@H](CCCN)C(=O)N[C@@H](CC(C)C)C(=O)N[C@@H](CCCCC)C(=O)N2CCC[C@H]2C(=O)N[C@@H](C(C)C)C(=O)N[C@@H](CC(=O)O)C(=O)N[C@H](C(=O)N[C@@H](CC(=O)O)C(N)=O)CSCC(=O)N[C@@H](Cc2cccc(C)c2)C(=O)N[C@@H](Cc2c[nH]c3ccccc23)C(=O)N[C@@H](CC(=O)O)C1=O [compound 1418] ({CH2CO}-[Phe(3-Me)]WD[NHexGly]Y[Nle]D[Orn]L[Ahp(2)]PVDCD-NH2; thioether N-14)

IC50 [1]: 14 nM
SMILES: CCCCCCN1CC(=O)N[C@@H](Cc2ccc(O)cc2)C(=O)N[C@@H](CCCC)C(=O)N[C@@H](CC(N)=O)C(=O)N[C@@H](CCCNC(=N)N)C(=O)N[C@@H](CC(C)C)C(=O)N[C@@H](CCCCC)C(=O)N2CCC[C@H]2C(=O)N[C@@H](C(C)C)C(=O)N[C@@H](CO)C(=O)N[C@H](C(=O)NCC(=O)O)CSCC(=O)N[C@@H](Cc2ccccc2)C(=O)N[C@@H](Cc2ccc(O)cc2)C(=O)N[C@@H](CC(=O)O)C1=O [Example 1046] ({CH2CO}-FYD[NHexGly]Y[Nle]NRL[Ahp(2)]PVSCG-OH; thioether N-14)

IC50 (read-out: HC CBA mVISTA IC50): 31.8 nM
SMILES: CCCCCCN1CC(=O)N[C@@H](Cc2ccc(O)cc2)C(=O)N[C@@H](CC(C)C)C(=O)N[C@@H](CC(N)=O)C(=O)N[C@@H](CCCNC(=N)N)C(=O)N(C)[C@@H](C(C)O)C(=O)N[C@@H](CCCCC)C(=O)N2CCC[C@H]2C(=O)N[C@@H](C(C)(C)C)C(=O)N[C@@H](CC(=O)O)C(=O)N[C@H](C(=O)NCCOCCOCC(=O)N[C@@H](CCC(=O)NCCOCCOCC(=O)NCCCCCCCCCCC(=O)O)C(=O)O)CSCC(=O)N[C@@H](Cc2ccccc2)C(=O)N[C@@H](Cc2ccc(O)cc2)C(=O)N[C@@H](CC(=O)O)C1=O (stereo partly drawn) [compound 2275] ({CH2CO}-FYD[NHexGly]YLNR[NMeThr(3ξ)][Ahp(2)]P[Tle]DC[AEEA][γGlu][AEEA][Aun]-OH; thioether N-14)

Reference: patent US20240218022A1, “ANTI-VISTA MACROCYCLIC PEPTIDES AND COMPOSITIONS” (BRISTOL-MYERS SQUIBB COMPANY, priority 2022, published 2024)
